# Read-outs that look alike come from different tables or passages of the source.
# Legend:
# [1] = Shake-flask partition coefficient logP and distribution coefficient logD (pH 7.4); format: physicochemical
# Method: Before the initiation of the intended experiments, all solvents were mutually saturated at 21°C. […] For saturation, large stock bottles containing n-octanol and 12% of water/buffer or water/buffer and 12% of n-octanol were shaken for 30 mins on a mechanical shaker and subsequently left to stand on the bench overnight until the phases separated. Approximately 0.50 mg of tested substance was added to the test vessels alongside with 1:1 volume ratio of saturated solvents (250 μL). The test vessels were shaken on the mechanical shaker (Multi Reax, Heidolph Instruments, Schwabach, Germany) for 30 min at the highest speed and then centrifuged for phase separation (16.873 × g for 5 min; Eppendorf 5418 Microcentrifuge, Prague, Czech Republic). Both organic and aqueous phases were sampled for LC-MS analysis. UHPLC-DAD-MS (UHPLC Infinity II 1290, detection by DAD and QqQ 6470; Agilent Technologies, CA, USA; separation on Arion C18 polar column 100 × 2.1 mm, 2.1 μm; Chromservis, Czech Republic) was used for determination of the exact concentration of tested substances. The total quantity of substance (in both phases) was used for logP/logD values calculation.
# C57BL/6 (B6) male mice [2] = assay: In vivo tolerability study (behaviour, signs of toxicity, body weight)
# Method: C57BL/6 (B6) male mice, 8–12 weeks old, were obtained from the Institute of Molecular Genetics, Prague, Czech Republic. Experimental protocols were approved by the Institutional Animal Care Committee of the Institute of Molecular Genetics, Prague.
# (§1) Compounds were dissolved in 20 μL DMSO and completed into 200 μL with corn oil.
# (§2) During the experiments, mice behavior and possible apparent signs of toxicity were monitored daily. The body weights were determined on days 0, 4, and 8. On day 8, blood (25 μL) was withdrawn using a capillary pipette containing anticoagulant (heparin) from the retroorbital sinus into EDTA-containing tubes. Basic hematological parameters were measured using the Mindray BC-5300 Vet. Mice were then killed, autopsied, and abdominal organs (spleen, liver, and kidney) were removed for visual examination and imaging by a digital camera. Single-cell suspensions from the spleens were prepared by homogenization through a cell strainer (70 μm; BD Biosciences, San Jose, CA, USA). Erythrocytes were osmotically lysed using ammonium chloride-potassium lysis buffer, and the cell suspensions were washed three times in the RPMI-1640 medium and used for further analysis by flow cytometry for selected cell populations.
# C57BL/6 (B6) male mice [3] = assay: Histopathological analysis of spleen, kidney and liver; format: in vivo
# Method: Spleen, kidney, and liver tissue samples from the control and treated animals were fixed in 4% formaldehyde and embedded into paraffin. The analysis and evaluation were performed at the Czech Centre for Phenogenomics, Institute of Molecular Genetics of the CAS, Vestec, using Leica ASP6025 automatic vacuum tissue processor for tissue processing, Leica EG1150 H + C embedding station for embedding, and Leica RM2255 rotary microtome for sectioning (2 μm sections). Standard haematoxylin and eosin (HE) descriptive histopathological staining was done using Leica ST5020 + CV5030 stainer and coverslipped.
# [4] = system: mTORC1 substrate p70 S6 kinase (Thr389 phosphorylation); assay: Immunoblot of phospho-p70 S6K (Thr389), mTORC1 activity in cells; format: cell-based, human; details: for effect on Thr389 S6K phosphorylation / effect on p70 S6K phosphorylation: 100 μM
# [5] = Solubility by nephelometry (water, buffer pH 7.4); format: physicochemical
# Method: Compounds’ solubility was measured by the NEPHELOstar microplate instrument (BMG Labtech, Offenburg, Germany). Stock solutions were prepared by dissolving the tested compounds in ultrapure water or sodium phosphate buffer (pH 7.4) to obtain a concentration of 160 and 1,000 μg/mL. Each stock solution was sonicated at full power by Hielscher UP100H needle ultrasonic processor (Teltow, Germany) before loading into NEPHELOstar instrument injector A. Ultrapure water or sodium phosphate buffer was loaded into injector B. Compound was diluted in 48 wells in 0–160 or 0–1,000 μg/mL range and subsequently shook for 30 s. Each well was scanned with 80% laser power in matrix 3 × 3, beam width 2 mm, and obtained data were evaluated in GraphPad Prism 7.03 (GraphPad Software, San Diego, CA, USA) using segmental linear regression.
# C57BL/6 (B6) male mice [6] = assay: Blood counts in the tolerability study; format: in vivo; details: for MPV: mice, blood day 8, AVG; for Eos / HGB / HOT / MCH / MCHC / MCV / Mon / Neu / PCT / PDW / PLT / RBC / RDW-CV / RDW-SD / WBC / lvm: mouse, in vivo, po
# Method: as §1, §2
# [7] = p.o. 5, 25 and 50 mg/kg body weight, days 0, 3, 5
smiles,measurement,setting,value
"Nc1ccc(C(=O)Nc2cccc(-c3c[nH]c4ncccc34)c2)cc1O [Compound 3, N-(3-(1H-pyrrolo[2,3-b]pyridin-3-yl)phenyl)-4-amino-3-hydroxybenzamide]",logD,"[1]; n-octanol/sodium phosphate buffer, pH 7.4, shake-flask, n-octanol/sodium phosphate buffer pH 7.4, read-out: logD",2.15 ± 0.02
same,logP,"[1]; n-octanol/water, shake-flask, n-octanol/water, read-out: logP",2.08 ± 0.07
same,symptoms of intoxication,"C57BL/6 (B6) male mice [2]; 50 mg/kg body weight, perorally",did not exert any symptoms of intoxication
same,changes in mice behavior and body weights,C57BL/6 (B6) male mice [2]; [7],no changes
same,signs of whole body or organ toxicities,C57BL/6 (B6) male mice [2]; [7],no apparent signs
same,"histopathology, spleen","C57BL/6 (B6) male mice [3]; mice, 25 mg/kg p.o., HE, 100×",mild extramedullar hematopoiesis
same,"histopathology, kidneys","C57BL/6 (B6) male mice [3]; mice, 25 mg/kg p.o., HE, 200×","narrowing of Bowman’s space (arrow), focal tubular atrophy"
same,"histopathology, kidneys","C57BL/6 (B6) male mice [3]; mice, 50 mg/kg p.o., HE, 200×",multifocal mild tubular damage
same,"histopathology, liver","C57BL/6 (B6) male mice [3]; mice, 50 mg/kg p.o., HE, 400×",rare incipient centrilobular necrosis
same,"histopathology, liver","C57BL/6 (B6) male mice [3]; mice, 5, 25, 50 mg/kg p.o., dose-dependent",minimal evidence of damage
same,"histopathology, kidneys","C57BL/6 (B6) male mice [3]; mice, 5, 25, 50 mg/kg p.o., proportional to dose",most pronounced pathological changes
same,"histopathology, spleen","C57BL/6 (B6) male mice [3]; mice, all three doses (5, 25, 50 mg/kg p.o.)",varying degrees of extramedullary haematopoiesis
same,effect on Thr389 S6K phosphorylation,"[4]; BJ cells, 1 and 5 h",inhibitory effect
same,effect on Thr389 S6K phosphorylation,"[4]; DU-145, 1 and 5 h",no effect
same,effect on Thr389 S6K phosphorylation,"[4]; H1299, 1 and 5 h",Marked but transient inhibition
same,effect on Thr389 S6K phosphorylation,"[4]; MDA-MB-231, 1 and 5 h",Marked but transient inhibition
same,effect on Thr389 S6K phosphorylation,"[4]; RPE-1, 1 and 5 h",no effect
same,effect on Thr389 S6K phosphorylation,"[4]; T98, 1 and 5 h",Marked but transient inhibition
same,effect on Thr389 S6K phosphorylation,"[4]; U87, after 1 h, reasonable level also after 5 h",most potent inhibitory effect
same,effect on p70 S6K phosphorylation,"[4]; docetaxel-induced senescent BJ, 1 and 5 h",robust effect
same,effect on p70 S6K phosphorylation,"[4]; ionizing radiation-induced senescent RPE-1, 1 and 5 h",less pronounced effect
same,concentration from which inhibition of S6K phosphorylation is apparent,"[4]; proliferating BJ cells, 0–100 μM, after 5 h-long exposure",6.25 µM
same,effect on p70 S6K phosphorylation,"[4]; temozolomide-induced senescent U87, 1 and 5 h",less pronounced effect
same,solubility kinetic at 30 s,"[5]; aqueous buffer, sodium phosphate buffer pH 7.4, nephelometry, read-out: Sol. (buffer 7.4)",< 6 µg/mL
same,logSpH 7.4,[5]; buffer pH 7.4,<−4.76
same,Sol. (buffer 7.4),"[5]; sodium phosphate buffer pH 7.4, nephelometry",lower than 6 μg/mL
same,Sol. (H2O),"[5]; ultrapure water, nephelometry",lower than 6 μg/mL
same,solubility kinetic at 30 s,"[5]; ultrapure water, nephelometry, read-out: Sol. (H2O)",< 6 µg/mL
same,logSH2O,[5]; water,<−4.76
same,MPV,"C57BL/6 (B6) male mice [6]; 5 mg/kg p.o. days 0, 3, 5",5.67
same,MPV,"C57BL/6 (B6) male mice [6]; 25 mg/kg p.o. days 0, 3, 5",5.37
same,MPV,"C57BL/6 (B6) male mice [6]; 50 mg/kg p.o. days 0, 3, 5",5.20
same,Eos,C57BL/6 (B6) male mice [6]; 5 mg/kg,0.88
same,HGB,C57BL/6 (B6) male mice [6]; 5 mg/kg,131.00
same,HOT,C57BL/6 (B6) male mice [6]; 5 mg/kg,0.44
same,MCH,C57BL/6 (B6) male mice [6]; 5 mg/kg,15.90
same,MCHC,C57BL/6 (B6) male mice [6]; 5 mg/kg,296.33
same,MCV,C57BL/6 (B6) male mice [6]; 5 mg/kg,53.70
same,Mon,C57BL/6 (B6) male mice [6]; 5 mg/kg,0.39 10^9/L
same,Neu,C57BL/6 (B6) male mice [6]; 5 mg/kg,1.65
same,PCT,C57BL/6 (B6) male mice [6]; 5 mg/kg,3.88
same,PDW,C57BL/6 (B6) male mice [6]; 5 mg/kg,15.20
same,PLT,C57BL/6 (B6) male mice [6]; 5 mg/kg,677.33
same,RBC,C57BL/6 (B6) male mice [6]; 5 mg/kg,8.28 10^12/L
same,RDW-CV,C57BL/6 (B6) male mice [6]; 5 mg/kg,0.14
same,RDW-SD,C57BL/6 (B6) male mice [6]; 5 mg/kg,31.27
same,WBC,C57BL/6 (B6) male mice [6]; 5 mg/kg,12.56
same,lvm,C57BL/6 (B6) male mice [6]; 5 mg/kg,9.60
same,Eos,C57BL/6 (B6) male mice [6]; 25 mg/kg,0.74
same,HGB,C57BL/6 (B6) male mice [6]; 25 mg/kg,136.00
same,HOT,C57BL/6 (B6) male mice [6]; 25 mg/kg,0.46
same,MCH,C57BL/6 (B6) male mice [6]; 25 mg/kg,15.53
same,MCHC,C57BL/6 (B6) male mice [6]; 25 mg/kg,294.00
same,MCV,C57BL/6 (B6) male mice [6]; 25 mg/kg,52.77
same,Mon,C57BL/6 (B6) male mice [6]; 25 mg/kg,0.52 10^9/L
same,Neu,C57BL/6 (B6) male mice [6]; 25 mg/kg,1.47
same,PCT,C57BL/6 (B6) male mice [6]; 25 mg/kg,1.77
same,PDW,C57BL/6 (B6) male mice [6]; 25 mg/kg,14.93
same,PLT,C57BL/6 (B6) male mice [6]; 25 mg/kg,330.00
same,RBC,C57BL/6 (B6) male mice [6]; 25 mg/kg,8.76 10^12/L
same,RDW-CV,C57BL/6 (B6) male mice [6]; 25 mg/kg,0.15
same,RDW-SD,C57BL/6 (B6) male mice [6]; 25 mg/kg,32.23
same,WBC,C57BL/6 (B6) male mice [6]; 25 mg/kg,11.49
same,lvm,C57BL/6 (B6) male mice [6]; 25 mg/kg,8.71
same,Eos,C57BL/6 (B6) male mice [6]; 50 mg/kg,0.43
same,HGB,C57BL/6 (B6) male mice [6]; 50 mg/kg,150.67
same,HOT,C57BL/6 (B6) male mice [6]; 50 mg/kg,0.52
same,MCH,C57BL/6 (B6) male mice [6]; 50 mg/kg,15.10
same,MCHC,C57BL/6 (B6) male mice [6]; 50 mg/kg,289.33
same,MCV,C57BL/6 (B6) male mice [6]; 50 mg/kg,52.07
same,Mon,C57BL/6 (B6) male mice [6]; 50 mg/kg,0.72 10^9/L
same,Neu,C57BL/6 (B6) male mice [6]; 50 mg/kg,0.86
same,PCT,C57BL/6 (B6) male mice [6]; 50 mg/kg,3.92
same,PDW,C57BL/6 (B6) male mice [6]; 50 mg/kg,14.70
same,PLT,C57BL/6 (B6) male mice [6]; 50 mg/kg,751.67
same,RBC,C57BL/6 (B6) male mice [6]; 50 mg/kg,9.99 10^12/L
same,RDW-CV,C57BL/6 (B6) male mice [6]; 50 mg/kg,0.13
same,RDW-SD,C57BL/6 (B6) male mice [6]; 50 mg/kg,29.03
same,WBC,C57BL/6 (B6) male mice [6]; 50 mg/kg,8.25
same,lvm,C57BL/6 (B6) male mice [6]; 50 mg/kg,6.23

# From PMC9767416, “Discovery of small molecule mechanistic target of rapamycin inhibitors as anti-aging and anti-cancer therapeutics” (Frontiers in Aging Neuroscience, 2022)
